In patent US20190263796A1, “LIM KINASE INHIBITORS, PHARMACEUTICAL COMPOSITION AND METHOD OF USE IN LIMK-MEDIATED DISEASES” (CELLIPSE, priority 2016, published 2019):
Each block holds one compound with its values, some of them ahead of it.

Legend:
P-MEK/Total MEK = assay: Western blot MEK1 phosphorylation, Kasumi-1; assay type: cell-based; settings: Kasumi-1 cells
Method: Cells were maintained at 37° C. with 5% CO2.
In a 6 wells plate (Falcon 353046), 2·10^6 cells in 1.5 mL medium are treated for 2 h with compounds. Cells are then collected and cell lysis is performed at 4° C. using RIPA buffer supplemented with protease inhibitors cocktail (Sigma-Aldrich P8340) and phosphatase inhibitors cocktail (Sigma-Aldrich P5726). Following centrifugation 30 min 15000 g 4° C., supernatants are mixed with Laemmli buffer and denaturation is performed by heating 5 min 95° C. 10 μL of samples are subjected to electrophoresis on 15% SDS-PAGE. After electro-transfer (Mini Transblot, Bio-Rad), the PVDF membrane (Merck-Millipore Immobilon P IPVH00010) is blocked with Tris Buffered Saline, pH 7.4 (TBS) with 0.1% Tween 20 and 5% BSA for 1 h at room temperature under agitation. The membrane was rinsed 3 times 10 min at room temperature under agitation with TBS, 0.1% Tween-20 (TBST) and then 1 h at room temperature with anti-phospho-Ser218/222-MEK1 (Merck-Millipore 07-461, 1/1000 dilution) antibody or anti-MEK1 (Merck-Millipore 07-641, 1/1000 dilution) diluted in TBS, 0.1% Tween 20 and 1% BSA. The membrane is then rinsed 3 times 10 min RT under agitation in TBST and incubated for 1 h with anti-rabbit secondary antibody, horseradish peroxidase conjugated (Jackson Immunoresearch #711-036-152) under agitation at room temperature. After three washes 10 min at room temperature in TBST, the detection of total or phosphorylated cofilin was performed using chemiluminescence kit ECL™ Plus (GE Healthcare RPN2132). For each concentration of compound, ratio between phosphorylated cofilin and total cofilin is determined. This ratio is then expressed as percentage of control ratio (i.e., ratio from DMSO treated cells). IC50 P-MEK/Total MEK is then determined.
Selectivity ratios are calculated by dividing the IC50 P-MEK/Total MEK value (μM) by the IC50 Phospho-Ser3-Cofilin/Total Cofilin value (μM).

ALK(h) = target: T1, ALK(h) (Homo sapiens, UniProt Q9UM73); assay: KinaseProfiler panel: ALK(h); assay type: biochemical; settings: residual activity, 5 μM inhibitor, Km ATP
T1 construct: purchased Merck-Millipore (KinaseProfiler panel service)
Method: (§1) Kinase selectivity was performed on a panel of 58 recombinant protein kinases. The assays were performed in the presence of 5 μM inhibitor at the respective Km ATP for each kinase, using the KinaseProfiler panel service (Merck-Millipore). Residual activity measured in the presence of […] inhibitor is expressed as the percent of activity determined in the absence of inhibitor.

AMPKα1(h) = target: T2, AMPKα1(h) (Homo sapiens, UniProt Q13131); assay: KinaseProfiler panel: AMPKα1(h); assay type: biochemical; settings: residual activity, 5 μM inhibitor, Km ATP
T2 construct: purchased Merck-Millipore (KinaseProfiler panel service)
Method: as §1

Aurora-B(h) = target: T3, Aurora-B(h) (Homo sapiens, UniProt Q96GD4); assay: KinaseProfiler panel: Aurora-B(h); assay type: biochemical; settings: residual activity, 5 μM inhibitor, Km ATP
T3 construct: purchased Merck-Millipore (KinaseProfiler panel service)
Method: as §1

BTK(h) = target: T4, BTK(h) (Homo sapiens, UniProt Q06187); assay: KinaseProfiler panel: BTK(h); assay type: biochemical; settings: residual activity, 5 μM inhibitor, Km ATP
T4 construct: purchased Merck-Millipore (KinaseProfiler panel service)
Method: as §1

cKit(D816V)(h) = target: T5, cKit(D816V)(h) (Homo sapiens, UniProt P10721, D816V); assay: KinaseProfiler panel: cKit(D816V)(h); assay type: biochemical; settings: residual activity, 5 μM inhibitor, Km ATP
T5 construct: purchased Merck-Millipore (KinaseProfiler panel service)
T5 sequence (P10721 26-976 D816V): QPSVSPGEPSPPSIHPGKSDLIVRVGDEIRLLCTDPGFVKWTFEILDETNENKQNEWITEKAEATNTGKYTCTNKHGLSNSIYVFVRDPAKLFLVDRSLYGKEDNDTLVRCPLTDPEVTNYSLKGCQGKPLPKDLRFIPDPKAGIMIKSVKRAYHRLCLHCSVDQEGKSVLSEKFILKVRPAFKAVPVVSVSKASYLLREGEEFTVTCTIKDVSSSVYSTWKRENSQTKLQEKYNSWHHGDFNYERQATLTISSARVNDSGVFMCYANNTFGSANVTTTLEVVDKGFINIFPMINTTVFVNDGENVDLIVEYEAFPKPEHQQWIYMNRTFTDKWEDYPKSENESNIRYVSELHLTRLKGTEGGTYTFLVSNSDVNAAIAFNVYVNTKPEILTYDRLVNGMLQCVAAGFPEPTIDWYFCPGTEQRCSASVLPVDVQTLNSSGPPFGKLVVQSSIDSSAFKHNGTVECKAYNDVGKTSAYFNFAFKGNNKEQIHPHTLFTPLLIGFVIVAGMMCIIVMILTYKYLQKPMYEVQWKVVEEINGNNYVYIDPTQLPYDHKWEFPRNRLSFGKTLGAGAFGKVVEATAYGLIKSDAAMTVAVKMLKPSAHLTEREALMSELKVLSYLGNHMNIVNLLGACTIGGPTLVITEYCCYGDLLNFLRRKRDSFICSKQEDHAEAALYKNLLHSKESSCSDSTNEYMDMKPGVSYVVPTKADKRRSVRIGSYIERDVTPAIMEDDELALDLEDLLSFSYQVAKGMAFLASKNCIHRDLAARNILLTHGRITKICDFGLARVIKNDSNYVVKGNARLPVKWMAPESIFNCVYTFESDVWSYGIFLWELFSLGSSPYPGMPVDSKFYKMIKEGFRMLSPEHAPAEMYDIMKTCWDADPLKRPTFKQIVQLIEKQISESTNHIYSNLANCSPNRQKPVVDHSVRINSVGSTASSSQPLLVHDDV
Method: as §1

cKit(V560G)(h) = target: T6, cKit(V560G)(h) (Homo sapiens, UniProt P10721, V560G); assay: KinaseProfiler panel: cKit(V560G)(h); assay type: biochemical; settings: residual activity, 5 μM inhibitor, Km ATP
T6 construct: purchased Merck-Millipore (KinaseProfiler panel service)
T6 sequence (P10721 26-976 V560G): as the sequence (P10721 26-976 D816V) above, with V535G, V791D counted along it
Method: as §1

c-RAF(h) = target: T7, c-RAF(h) (Homo sapiens, UniProt P04049); assay: KinaseProfiler panel: c-RAF(h); assay type: biochemical; settings: residual activity, 5 μM inhibitor, Km ATP
T7 construct: purchased Merck-Millipore (KinaseProfiler panel service)
T7 sequence (P04049 whole entry): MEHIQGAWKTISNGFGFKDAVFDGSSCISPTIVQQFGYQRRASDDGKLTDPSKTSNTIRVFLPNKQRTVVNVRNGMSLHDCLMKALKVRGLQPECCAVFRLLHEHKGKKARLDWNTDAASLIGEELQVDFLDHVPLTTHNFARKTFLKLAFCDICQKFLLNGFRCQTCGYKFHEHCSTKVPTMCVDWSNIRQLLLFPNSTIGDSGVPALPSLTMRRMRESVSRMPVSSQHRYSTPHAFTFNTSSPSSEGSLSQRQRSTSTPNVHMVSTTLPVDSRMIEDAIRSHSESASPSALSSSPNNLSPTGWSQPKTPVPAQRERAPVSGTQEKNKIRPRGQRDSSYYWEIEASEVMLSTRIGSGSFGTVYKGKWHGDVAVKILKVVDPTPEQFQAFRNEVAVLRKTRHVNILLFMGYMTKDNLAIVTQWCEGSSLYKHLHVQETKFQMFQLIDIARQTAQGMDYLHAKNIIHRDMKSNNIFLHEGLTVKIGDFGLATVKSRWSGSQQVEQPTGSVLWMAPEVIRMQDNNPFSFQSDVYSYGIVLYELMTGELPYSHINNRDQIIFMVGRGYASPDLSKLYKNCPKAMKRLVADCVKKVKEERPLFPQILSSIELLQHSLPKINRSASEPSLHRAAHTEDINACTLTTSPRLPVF
Method: as §1

FAK(h) = target: T8, FAK(h) (Homo sapiens, UniProt Q05397); assay: KinaseProfiler panel: FAK(h); assay type: biochemical; settings: residual activity, 5 μM inhibitor, Km ATP
T8 construct: purchased Merck-Millipore (KinaseProfiler panel service)
Method: as §1

FGFR1(h) = target: T9, FGFR1(h) (Homo sapiens, UniProt P11362); assay: KinaseProfiler panel: FGFR1(h); assay type: biochemical; settings: residual activity, 5 μM inhibitor, Km ATP
T9 construct: purchased Merck-Millipore (KinaseProfiler panel service)
T9 sequence (P11362 22-822): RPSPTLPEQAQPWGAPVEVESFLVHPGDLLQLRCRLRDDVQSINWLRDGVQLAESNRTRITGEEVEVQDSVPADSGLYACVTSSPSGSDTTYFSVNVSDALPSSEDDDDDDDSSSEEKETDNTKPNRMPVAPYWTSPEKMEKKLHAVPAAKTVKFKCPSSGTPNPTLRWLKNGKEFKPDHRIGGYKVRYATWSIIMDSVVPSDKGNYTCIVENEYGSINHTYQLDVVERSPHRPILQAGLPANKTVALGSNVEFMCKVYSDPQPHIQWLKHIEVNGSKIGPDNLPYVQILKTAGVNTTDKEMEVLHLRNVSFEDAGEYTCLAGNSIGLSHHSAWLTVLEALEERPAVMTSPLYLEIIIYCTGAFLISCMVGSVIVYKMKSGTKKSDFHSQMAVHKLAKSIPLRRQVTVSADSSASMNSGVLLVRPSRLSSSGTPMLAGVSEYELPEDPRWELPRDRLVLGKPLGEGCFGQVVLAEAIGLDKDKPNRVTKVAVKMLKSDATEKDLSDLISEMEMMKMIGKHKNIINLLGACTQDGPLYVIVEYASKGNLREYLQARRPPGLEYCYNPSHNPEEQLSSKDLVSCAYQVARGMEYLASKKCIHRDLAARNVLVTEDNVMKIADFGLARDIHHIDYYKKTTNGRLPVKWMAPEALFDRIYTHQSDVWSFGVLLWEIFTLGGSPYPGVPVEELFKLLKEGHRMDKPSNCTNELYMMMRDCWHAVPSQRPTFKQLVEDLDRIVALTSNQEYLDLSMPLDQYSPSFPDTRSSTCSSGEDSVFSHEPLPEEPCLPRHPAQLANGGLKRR
Method: as §1

IKKα(h) = target: T10, IKKα(h) (Homo sapiens, UniProt O15111); assay: KinaseProfiler panel: IKKα(h); assay type: biochemical; settings: residual activity, 5 μM inhibitor, Km ATP
T10 construct: purchased Merck-Millipore (KinaseProfiler panel service)
Method: as §1

JAK2(h) = target: T11, JAK2(h) (Homo sapiens, UniProt O60674); assay: KinaseProfiler panel: JAK2(h); assay type: biochemical; settings: residual activity, 5 μM inhibitor, Km ATP
T11 construct: purchased Merck-Millipore (KinaseProfiler panel service)
Method: as §1

KDR(h) = target: T12, KDR(h) (Homo sapiens, UniProt P35968); assay: KinaseProfiler panel: KDR(h); assay type: biochemical; settings: residual activity, 5 μM inhibitor, Km ATP
T12 construct: purchased Merck-Millipore (KinaseProfiler panel service)
T12 sequence (P35968 20-1356): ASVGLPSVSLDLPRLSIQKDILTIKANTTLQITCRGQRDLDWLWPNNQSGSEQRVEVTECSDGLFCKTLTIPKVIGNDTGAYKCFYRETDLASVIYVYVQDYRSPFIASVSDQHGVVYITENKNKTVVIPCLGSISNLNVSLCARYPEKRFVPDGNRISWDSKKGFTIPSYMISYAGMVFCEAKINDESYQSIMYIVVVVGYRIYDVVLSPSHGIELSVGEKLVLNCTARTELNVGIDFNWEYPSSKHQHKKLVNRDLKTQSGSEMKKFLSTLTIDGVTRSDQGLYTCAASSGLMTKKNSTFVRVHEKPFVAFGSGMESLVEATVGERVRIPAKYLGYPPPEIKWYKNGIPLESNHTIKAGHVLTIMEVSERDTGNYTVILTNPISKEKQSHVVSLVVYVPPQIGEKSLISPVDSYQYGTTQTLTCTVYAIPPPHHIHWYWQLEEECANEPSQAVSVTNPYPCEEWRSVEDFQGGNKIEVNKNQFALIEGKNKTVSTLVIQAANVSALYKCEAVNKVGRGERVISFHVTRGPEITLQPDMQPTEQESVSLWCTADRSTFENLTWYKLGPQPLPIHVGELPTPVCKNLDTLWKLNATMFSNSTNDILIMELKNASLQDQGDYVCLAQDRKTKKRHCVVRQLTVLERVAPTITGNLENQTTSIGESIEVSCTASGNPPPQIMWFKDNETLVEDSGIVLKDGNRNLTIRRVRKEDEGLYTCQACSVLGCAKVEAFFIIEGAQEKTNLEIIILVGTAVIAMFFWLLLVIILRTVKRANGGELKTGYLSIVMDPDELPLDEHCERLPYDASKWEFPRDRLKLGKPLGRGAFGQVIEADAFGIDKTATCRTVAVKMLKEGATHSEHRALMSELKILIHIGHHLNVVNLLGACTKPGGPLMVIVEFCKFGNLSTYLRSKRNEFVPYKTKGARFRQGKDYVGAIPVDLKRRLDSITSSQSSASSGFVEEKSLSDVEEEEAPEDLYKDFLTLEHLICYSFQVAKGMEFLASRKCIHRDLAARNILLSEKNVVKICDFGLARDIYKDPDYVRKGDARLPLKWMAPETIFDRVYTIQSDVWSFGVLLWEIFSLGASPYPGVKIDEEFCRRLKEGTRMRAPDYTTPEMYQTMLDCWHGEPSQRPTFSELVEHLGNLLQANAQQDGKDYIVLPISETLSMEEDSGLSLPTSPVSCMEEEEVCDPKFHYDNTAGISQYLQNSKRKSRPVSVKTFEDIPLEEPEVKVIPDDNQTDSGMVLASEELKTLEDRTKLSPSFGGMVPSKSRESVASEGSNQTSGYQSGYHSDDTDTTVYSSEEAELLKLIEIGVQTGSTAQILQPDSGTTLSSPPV
Method: as §1

LKB1(h) = target: T13, LKB1(h) (Homo sapiens, UniProt Q15831); assay: KinaseProfiler panel: LKB1(h); assay type: biochemical; settings: residual activity, 5 μM inhibitor, Km ATP
T13 construct: purchased Merck-Millipore (KinaseProfiler panel service)
Method: as §1

MEK1(h) = target: T14, MEK1(h) (Homo sapiens, UniProt Q02750); assay: KinaseProfiler panel: MEK1(h); assay type: biochemical; settings: residual activity, 5 μM inhibitor, Km ATP
T14 construct: purchased Merck-Millipore (KinaseProfiler panel service)
Method: as §1

MLCK(h) = assay: KinaseProfiler panel: MLCK(h); assay type: biochemical, human; settings: residual activity, 5 μM inhibitor, Km ATP
Method: as §1

PAK2(h) = target: T15, PAK2(h) (Homo sapiens, UniProt Q13177); assay: KinaseProfiler panel: PAK2(h); assay type: biochemical; settings: residual activity, 5 μM inhibitor, Km ATP
T15 construct: purchased Merck-Millipore (KinaseProfiler panel service)
T15 sequence (Q13177 whole entry): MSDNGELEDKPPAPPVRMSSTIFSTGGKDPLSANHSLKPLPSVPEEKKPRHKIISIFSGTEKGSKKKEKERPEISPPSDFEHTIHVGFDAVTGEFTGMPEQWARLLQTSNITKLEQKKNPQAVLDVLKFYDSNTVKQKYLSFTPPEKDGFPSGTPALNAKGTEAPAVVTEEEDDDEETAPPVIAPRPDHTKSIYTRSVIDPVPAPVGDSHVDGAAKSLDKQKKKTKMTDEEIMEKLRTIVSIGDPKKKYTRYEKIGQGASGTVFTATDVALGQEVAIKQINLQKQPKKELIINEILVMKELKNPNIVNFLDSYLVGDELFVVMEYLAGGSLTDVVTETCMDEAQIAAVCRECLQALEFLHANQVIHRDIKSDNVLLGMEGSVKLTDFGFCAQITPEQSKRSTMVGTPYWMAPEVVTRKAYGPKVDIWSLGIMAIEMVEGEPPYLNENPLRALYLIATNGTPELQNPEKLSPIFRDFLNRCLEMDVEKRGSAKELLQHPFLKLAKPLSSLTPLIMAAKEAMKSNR
Method: as §1

PAK4(h) = target: T16, PAK4(h) (Homo sapiens, UniProt O96013); assay: KinaseProfiler panel: PAK4(h); assay type: biochemical; settings: residual activity, 5 μM inhibitor, Km ATP
T16 construct: purchased Merck-Millipore (KinaseProfiler panel service)
Method: as §1

PAK3(h) = target: T17, PAK3(h) (Homo sapiens, UniProt O75914); assay: KinaseProfiler panel: PAK3(h); assay type: biochemical; settings: residual activity, 5 μM inhibitor, Km ATP
T17 construct: purchased Merck-Millipore (KinaseProfiler panel service)
Method: as §1

PAK5(h) = target: T18, PAK5(h) (Homo sapiens, UniProt Q9P286); assay: KinaseProfiler panel: PAK5(h); assay type: biochemical; settings: residual activity, 5 μM inhibitor, Km ATP
T18 construct: purchased Merck-Millipore (KinaseProfiler panel service)
Method: as §1

PAK6(h) = target: T19, PAK6(h) (Homo sapiens, UniProt Q9NQU5); assay: KinaseProfiler panel: PAK6(h); assay type: biochemical; settings: residual activity, 5 μM inhibitor, Km ATP
T19 construct: purchased Merck-Millipore (KinaseProfiler panel service)
Method: as §1

PKCα(h) = target: T20, PKCα(h) (Homo sapiens, UniProt P17252); assay: KinaseProfiler panel: PKCα(h); assay type: biochemical; settings: residual activity, 5 μM inhibitor, Km ATP
T20 construct: purchased Merck-Millipore (KinaseProfiler panel service)
Method: as §1

Plk3(h) = target: T21, Plk3(h) (Homo sapiens, UniProt Q9H4B4); assay: KinaseProfiler panel: Plk3(h); assay type: biochemical; settings: residual activity, 5 μM inhibitor, Km ATP
T21 construct: purchased Merck-Millipore (KinaseProfiler panel service)
Method: as §1

ROCK-I(h) = target: T22, ROCK-I(h) (Homo sapiens, UniProt Q13464); assay: KinaseProfiler panel: ROCK-I(h); assay type: biochemical; settings: residual activity, 5 μM inhibitor, Km ATP
T22 construct: purchased Merck-Millipore (KinaseProfiler panel service)
Method: as §1

TrkA(h) = target: T23, TrkA(h) (Homo sapiens, UniProt P04629); assay: KinaseProfiler panel: TrkA(h); assay type: biochemical; settings: residual activity, 5 μM inhibitor, Km ATP
T23 construct: purchased Merck-Millipore (KinaseProfiler panel service)
T23 sequence (P04629 33-796): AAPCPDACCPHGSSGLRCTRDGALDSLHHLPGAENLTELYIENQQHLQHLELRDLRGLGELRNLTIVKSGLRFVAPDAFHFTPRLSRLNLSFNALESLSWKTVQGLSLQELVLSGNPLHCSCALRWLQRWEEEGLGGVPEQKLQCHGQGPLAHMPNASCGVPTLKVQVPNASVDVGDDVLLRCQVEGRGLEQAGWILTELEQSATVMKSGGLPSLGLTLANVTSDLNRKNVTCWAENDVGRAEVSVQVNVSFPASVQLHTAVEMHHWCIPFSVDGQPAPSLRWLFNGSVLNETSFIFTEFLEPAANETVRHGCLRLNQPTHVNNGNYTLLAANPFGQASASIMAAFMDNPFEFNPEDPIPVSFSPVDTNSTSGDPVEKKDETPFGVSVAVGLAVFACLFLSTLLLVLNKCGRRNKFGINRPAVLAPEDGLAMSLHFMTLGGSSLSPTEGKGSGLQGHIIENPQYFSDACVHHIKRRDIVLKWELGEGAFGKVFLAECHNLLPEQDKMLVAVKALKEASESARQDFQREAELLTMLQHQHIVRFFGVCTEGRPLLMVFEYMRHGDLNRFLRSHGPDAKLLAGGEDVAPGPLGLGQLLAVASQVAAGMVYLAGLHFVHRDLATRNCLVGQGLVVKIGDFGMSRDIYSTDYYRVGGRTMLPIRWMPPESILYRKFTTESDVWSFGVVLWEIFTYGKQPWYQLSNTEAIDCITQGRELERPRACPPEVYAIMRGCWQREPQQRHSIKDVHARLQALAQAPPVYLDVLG
Method: as §1

LIMK1(h) = LIMK1(h) (Homo sapiens, UniProt P53667); assay: KinaseProfiler panel: LIMK1(h); assay type: biochemical; parameters: purchased Merck-Millipore (KinaseProfiler panel service); settings: residual activity, 5 μM inhibitor, Km ATP
Method: as §1

IC50 (P-MEK/Total MEK; Homo sapiens, 2 h, read-out: IC50 P-MEK/Total MEK): > 1000 nM
SMILES: O=S(=O)(Nc1cccc(-c2nc(CCO)sc2-c2ccnc(Nc3ccccc3)n2)c1F)c1c(F)cccc1F [8 (Na)]
Selectivity ratio (P-MEK/Total MEK; IC50 P-MEK/Total MEK divided by IC50 Phospho-Ser3-Cofilin/Total Cofilin): 10

SMILES: CC(C)(C)c1nc(-c2cccc(NS(=O)(=O)c3c(F)cccc3F)c2F)c(-c2ccnc(Nc3ccccc3)n2)s1 [Compound 1, N-(3-(2-(tert-butyl)-5-(2-(phenylamino)pyrimidin-4-yl)thiazol-4-yl)-2-fluorophenyl)-2,6-difluorobenzenesulfonamide]
activity at 5 µM (ALK(h)): ≥ 50%
activity at 5 µM (AMPKα1(h)): ≥ 50%
activity at 5 µM (Aurora-B(h)): 10 to 50%
activity at 5 µM (BTK(h)): 10 to 50%
activity at 5 µM (cKit(D816V)(h)): ≥ 50%
activity at 5 µM (cKit(V560G)(h)): 10 to 50%
activity at 5 µM (c-RAF(h)): 3 to 10%
activity at 5 µM (FAK(h)): ≥ 50%
activity at 5 µM (FGFR1(h)): ≥ 50%
activity at 5 µM (IKKα(h)): ≥ 50%
activity at 5 µM (JAK2(h)): ≥ 50%
activity at 5 µM (KDR(h)): 10 to 50%
activity at 5 µM (LKB1(h)): ≥ 50%
activity at 5 µM (MEK1(h)): ≥ 50%
% activity (MLCK(h)): − (50%≤residual activity)
activity at 5 µM (PAK2(h)): ≥ 50%
activity at 5 µM (PAK4(h)): ≥ 50%
activity at 5 µM (PAK3(h)): ≥ 50%
activity at 5 µM (PAK5(h)): ≥ 50%
activity at 5 µM (PAK6(h)): ≥ 50%
activity at 5 µM (PKCα(h)): ≥ 50%
activity at 5 µM (Plk3(h)): ≥ 50%
activity at 5 µM (ROCK-I(h)): ≥ 50%
activity at 5 µM (TrkA(h)): 10 to 50%
activity at 5 µM (LIMK1(h)): < 3%
